Target: T1, Vam7p PX domain (Saccharomyces cerevisiae, UniProt P32912)
T1 sequence (P32912 2-122): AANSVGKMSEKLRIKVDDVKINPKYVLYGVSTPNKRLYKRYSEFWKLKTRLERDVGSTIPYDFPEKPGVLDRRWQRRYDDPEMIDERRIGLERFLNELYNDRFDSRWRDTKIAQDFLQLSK
Experiment: 1H, […] HSQC NMR titration
Format: binding

Q: How did the Kd turn out when `CCCC(=O)OC[C@H](COP(=O)(O)O[C@@H]1[C@H](O)[C@H](OP(=O)(O)O)[C@@H](O)[C@H](O)[C@H]1O)OC(=O)CCC` [C4-PtdIns(3)P] was run?
A: The Kd was 299 ± 26 µM.
